Where “and” joins values, the source holds several entries; their conditions need not be identical. Identical values can stand only once.
Tests used:
Genome polyprotein [1] = target: T1, Genome polyprotein (dengue virus type 2, UniProt P29990); format: functional, Thailand/16681/1984
Genome polyprotein [2] = target: T1, Genome polyprotein; format: functional, Thailand/16681/1984; remark: listed apart in the source

T1 sequence (P29990 1346-1475 limits assumed): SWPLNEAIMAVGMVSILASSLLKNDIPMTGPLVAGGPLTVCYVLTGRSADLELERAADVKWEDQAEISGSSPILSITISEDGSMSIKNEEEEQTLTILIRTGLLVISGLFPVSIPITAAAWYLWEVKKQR
T1 sequence (P29990 1476-2093 limits assumed): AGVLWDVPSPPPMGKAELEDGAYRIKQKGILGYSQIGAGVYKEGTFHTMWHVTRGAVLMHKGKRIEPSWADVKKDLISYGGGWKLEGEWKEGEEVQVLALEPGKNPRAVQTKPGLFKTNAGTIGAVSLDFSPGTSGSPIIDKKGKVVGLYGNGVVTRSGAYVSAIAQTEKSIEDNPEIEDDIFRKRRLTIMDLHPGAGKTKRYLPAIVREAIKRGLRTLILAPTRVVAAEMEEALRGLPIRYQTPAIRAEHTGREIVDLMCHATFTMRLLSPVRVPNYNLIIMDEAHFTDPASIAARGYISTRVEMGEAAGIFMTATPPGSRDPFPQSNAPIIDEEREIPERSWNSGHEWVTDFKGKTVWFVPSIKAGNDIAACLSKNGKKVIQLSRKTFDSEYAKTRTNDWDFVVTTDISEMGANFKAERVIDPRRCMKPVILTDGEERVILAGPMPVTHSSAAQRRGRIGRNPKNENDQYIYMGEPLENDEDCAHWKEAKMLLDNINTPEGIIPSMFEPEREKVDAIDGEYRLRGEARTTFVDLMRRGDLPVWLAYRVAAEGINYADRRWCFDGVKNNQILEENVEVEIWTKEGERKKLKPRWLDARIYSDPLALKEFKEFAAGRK

Structure (SMILES)	IC50 (Genome polyprotein [1])	IC50 (Genome polyprotein [2])
CCn1c(=O)c(N2CC[C@H](CO)C2)nc2ccc(C(N)=O)cc21	81.7 µM	> 100 µM
O=C(Nc1cc(Cl)cc(C(=O)Nc2ccc3c(c2)C[C@H](O)C3)c1)OCc1ccccc1	> 99.5 µM	> 100 µM
COCc1cc(NC(=O)OCc2ccccc2)cc(C(=O)Nc2cccc(CN)c2)c1	> 99.5 µM	> 100 µM
CC(C)c1cc(NC(=O)OCc2ccccc2)cc(C(=O)Nc2cccc(CN)c2)c1	66.9 µM	> 100 µM
CNC(=O)C[C@H](Nc1ccccn1)c1cc(Cl)cc(Br)c1	> 99.5 µM	> 100 µM
N[C@H]1Cc2ccc(NC(=O)c3cc(Cl)cc(NC(=O)OCc4ccccc4)c3)cc2C1	33.3 µM	64.2 µM
CCn1c(=O)c(N2CC[C@H](CO)C2)nc2ccc(C(=O)N(C)C)cc21	> 99.5 µM	> 100 µM
NCc1ccc(I)c(NC(=O)c2cc(Cl)cc(NC(=O)OCc3ccccc3)c2)c1	52.1 µM	> 100 µM
CCn1c(=O)c(N2CC[C@H](CO)C2)nc2cc(C(N)=O)ccc21	> 99.5 µM	> 100 µM
O=C(Nc1cc(Cl)cc(C(=O)Nc2ccc(S(=O)(=O)N3CCNCC3)cc2)c1)OCc1ccccc1	> 99.5 µM	> 100 µM
Cc1c(C(=O)Nc2cccc(CN)c2)cc(C2CC2)n1C	> 99.5 µM	> 100 µM
O=C(Nc1cc(Cl)cc(C(=O)Nc2ccc3c(c2)OCO3)c1)OCc1ccccc1	> 99.5 µM	> 100 µM
NCc1cccc(NC(=O)c2cc(Cl)cc([C@H]3CCCCN3)c2)c1	> 99.5 µM	> 100 µM
O=C(Nc1cc(Cl)cc(C(=O)Nc2cccc([C@H]3C[C@H]3C(=O)O)c2)c1)OCc1ccccc1	19.6 µM and 25.7 µM and 26.9 µM and 24.8 µM	12.3 µM (3×) and 10.2 µM and 15.6 µM and 14.8 µM
CS(=O)(=O)c1cc(CN)cc(NC(=O)c2cc(Cl)cc(NC(=O)OCc3ccccc3)c2)c1	> 99.5 µM	> 100 µM
O=C(O)COc1cccc(NC(=O)c2cc(Cl)cc(NC(=O)OCc3ccccc3)c2)c1	45.5 µM	28 µM and 22.5 µM
CNC(=O)[C@H](Nc1cccc(N)n1)c1cc(Cl)cc(CN)c1	> 99.5 µM	> 100 µM
Cc1c(C(=O)Nc2cccc(CN)c2)cc(C(C)C)n1C	> 99.5 µM	> 100 µM
O=C1NC[C@H](c2ccc(OCc3ccccc3)c(Br)c2)N1C(=O)OCc1ccccc1	> 99.5 µM	> 100 µM
O=Cc1cc(Cl)cc(NC(=O)OCc2ccccc2)c1	> 99.5 µM	> 100 µM
NCCNS(=O)(=O)c1ccc(NC(=O)c2cc(Cl)cc(NC(=O)OCc3ccccc3)c2)cc1	33.6 µM	> 100 µM

Structure (SMILES)	IC50 (Genome polyprotein [1])	IC50 (Genome polyprotein [2])
O=C(Nc1cc(Cl)cc(C(=O)Nc2ccc(C3CCNCC3)cc2)c1)OCc1ccccc1	15.7 µM and 21.1 µM	41.3 µM
CCc1cc(C(=O)Nc2cccc(CN)c2)sc1C	> 99.5 µM	> 100 µM
Cc1onc(C(=O)Nc2cccc(CN)c2)c1COc1cccc(F)c1	> 99.5 µM	> 100 µM
NCc1ccc(C#CCO)c(NC(=O)c2cc(Cl)cc(NC(=O)OCc3ccccc3)c2)c1	38 µM	> 100 µM
Cc1nn(CCO)c(C(F)F)c1C(=O)Nc1cccc(CN)c1	> 99.5 µM	> 100 µM
NCc1cccc(NC(=O)c2c(C(F)(F)F)nc3n2CCCC3)c1	> 99.5 µM	> 100 µM
Cc1cnnc(C(=O)Nc2cccc(CN)c2)c1	> 99.5 µM	> 100 µM
N#CC[C@H](N)c1cccc(NC(=O)c2cc(Cl)cc(NC(=O)OCc3ccccc3)c2)c1	> 99.5 µM	> 100 µM
CCn1c(=O)c(N2CC[C@H](CO)C2)nc2ccc(C(=O)NCc3ccccc3)cc21	95.1 µM	> 100 µM
O=C(Nc1cc(Cl)cc(C(=O)Nc2ccc(OC3CNC3)cc2)c1)OCc1ccccc1	64.2 µM	> 100 µM
Cc1nc(N2CCOCC2)sc1CC(=O)Nc1cccc(CN)c1	> 99.5 µM	> 100 µM
NCCCCc1ccc(NC(=O)c2cc(Cl)cc(NC(=O)OCc3ccccc3)c2)cc1	11.8 µM and 19.5 µM	33.2 µM
CS(=O)(=O)c1ccc(CN)cc1NC(=O)c1cc(Cl)cc(NC(=O)OCc2ccccc2)c1	> 99.5 µM	> 100 µM
O=C(O)CCc1ccc(NC(=O)c2cc(Cl)cc(NC(=O)OCc3ccccc3)c2)cc1	42.8 µM	17.7 µM
CC(C)c1occ(C(F)(F)F)c1C(=O)Nc1cccc(CN)c1	> 99.5 µM	> 100 µM
CCn1c(=O)c(N2CC[C@H](CO)C2)nc2cc(C(=O)N(C)C)ccc21	> 99.5 µM	> 100 µM
CC(C)(C)OC(=O)NCc1ccc(I)c(NC(=O)c2cc(Cl)cc(NC(=O)OCc3ccccc3)c2)c1	> 99.5 µM	> 100 µM
CNC(=O)[C@H](Nc1ccccn1)c1cc(Cl)cc(CN)c1	> 99.5 µM	> 100 µM
NCc1nc(-c2ccc(NC(=O)c3cc(Cl)cc(NC(=O)OCc4ccccc4)c3)cc2)n[nH]1	48.2 µM	> 100 µM
NCc1cccc(NC(=O)[C@H]2CC(=O)Nc3ccc(Br)cc32)c1	> 99.5 µM	> 100 µM
Cc1cc(C(=O)Nc2cccc(CN)c2)c2sc(N)nc2n1	> 99.5 µM	> 100 µM

Structure (SMILES)	IC50 (Genome polyprotein [1])	IC50 (Genome polyprotein [2])
O=C(Nc1cc(Cl)cc(C(=O)Nc2ccc([C@H]3CNCCO3)cc2)c1)OCc1ccccc1	> 99.5 µM	> 100 µM
Cn1nc(C(=O)Nc2cccc(CN)c2)cc1C1CC1	> 99.5 µM	> 100 µM
NC[C@H]1C[C@H]1NC(=O)c1cc(Cl)cc(NC(=O)OCc2ccccc2)c1	> 99.5 µM	> 100 µM
CCc1onc(C2CCOCC2)c1C(=O)Nc1cccc(CN)c1	> 99.5 µM	> 100 µM
O=C(Nc1cc(Cl)cc(C(=O)Nc2ccc(N3CCNCC3)c(F)c2)c1)OCc1ccccc1	74.1 µM	> 100 µM
O=C(Nc1ccc2c(c1)CNC2)c1cc(O)nc(C2CC2)c1	> 99.5 µM	> 100 µM
N[C@H]1CC[C@H](c2ccc(NC(=O)c3cc(Cl)cc(NC(=O)OCc4ccccc4)c3)cc2)C1	10.2 µM and 8.32 µM and 13 µM	84.2 µM
O=C(Nc1cc(Cl)cc(C(=O)Nc2cccc(C(=O)O)c2)c1)OCc1ccccc1	42.7 µM	29.1 µM and 25.3 µM
N[C@H]1CCN(c2ccc(NC(=O)c3cc(Cl)cc(NC(=O)OCc4ccccc4)c3)cc2)C1	35.4 µM	> 100 µM
NC[C@H]1C[C@@H]1NC(=O)c1cc(Cl)cc(NC(=O)OCc2ccccc2)c1	> 99.5 µM	> 100 µM
NC1CCN(c2ccc(NC(=O)c3cc(Cl)cc(NC(=O)OCc4ccccc4)c3)cc2)CC1	39.7 µM	> 100 µM
O=C(Nc1cc(Cl)cc(C(=O)Nc2ccc3c(c2)COC3)c1)OCc1ccccc1	> 99.5 µM	> 100 µM
CCn1c(=O)c(N2CC[C@H](CO)C2)nc2cc(C(=O)NS(C)(=O)=O)ccc21	> 99.5 µM	> 100 µM
CCNC(=O)c1ccc2nc(N3CC[C@H](CO)C3)c(=O)n(CC)c2c1	90.4 µM	> 100 µM
O=C(Nc1cc(Cl)cc(C(=O)Nc2ccc(N3CCCNCC3)cc2)c1)OCc1ccccc1	27.6 µM	> 100 µM
NCc1cccc(NC(=O)[C@H]2CCCN(C(=O)CC3CC3)C2)c1	> 99.5 µM	> 100 µM
CCn1c(=O)c(N2CC[C@H](CO)C2)nc2cc(C(=O)NCc3ccccc3)ccc21	> 99.5 µM	> 100 µM
NCc1cccc(NC(=O)c2nc(C3CC3)n(-c3ccccc3Cl)n2)c1	> 99.5 µM	> 100 µM
O=C(Nc1cc(Cl)cc(C(=O)Nc2ccc([C@H]3CCNC3)cc2)c1)OCc1ccccc1	19.5 µM and 24.6 µM	39.4 µM
CS(=O)(=O)c1ccc(NC(=O)c2cc(Cl)cc(NC(=O)OCc3ccccc3)c2)cc1	> 99.5 µM	> 100 µM
NCc1cc(NC(=O)c2cc(Cl)cc(NC(=O)OCc3ccccc3)c2)cc(C2CC2)c1	72 µM	> 100 µM

Structure (SMILES)	IC50 (Genome polyprotein [1])	IC50 (Genome polyprotein [2])
CCOc1cccc(-c2ccc(NS(=O)(=O)c3cc(F)c(Cl)cc3C(=O)O)cc2)c1	9.4 µM	7.73 µM
O=C(Nc1cc(Cl)cc(C(=O)Nc2ccc(CC3CCNCC3)cc2)c1)OCc1ccccc1	14 µM and 17.3 µM	33.3 µM
Cc1cc(C(=O)Nc2cccc(CN)c2)c(NC(=O)[C@H]2CCCO2)s1	> 99.5 µM	> 100 µM
NCc1cccc(NC(=O)c2cc(Br)cc(-n3cnnn3)c2)c1	> 99.5 µM	> 100 µM
C[C@H]1CNC[C@@H]1c1ccc(NC(=O)c2cc(Cl)cc(NC(=O)OCc3ccccc3)c2)cc1	22.4 µM	96.6 µM
CCn1c(=O)c(N2CC[C@@H](CO)C2)nc2ccc(C(=O)O)cc21	> 99.5 µM	> 100 µM
CNC(=O)C[C@H](Nc1ccccn1)c1cc(Cl)cc(CN)c1	> 99.5 µM	> 100 µM
O=C(Nc1cc(Cl)cc(C(=O)Nc2ccc3c(c2)CCNC3)c1)OCc1ccccc1	50 µM and 60.1 µM	> 100 µM
CCNC(=O)c1ccc2c(c1)nc(N1CC[C@H](CO)C1)c(=O)n2CC	> 99.5 µM	> 100 µM
O=C(Nc1cc(Cl)cc(C(=O)Nc2ccc([C@]34CNC[C@H]3C4)cc2)c1)OCc1ccccc1	> 99.5 µM	> 100 µM
CN(C)[C@H](C(=O)Nc1cccc(CN)c1)c1cc(Cl)cc(Cl)c1	> 99.5 µM	> 100 µM
NCc1cccc(NC(=O)c2cc(Cl)cc(Cl)c2OCc2ccccc2)c1	44.7 µM	42.6 µM
O=C(Nc1cc(Cl)cc(C(=O)Nc2ccc(C3CNC3)cc2)c1)OCc1ccccc1	39.2 µM	> 100 µM
O=C(Nc1cc(Cl)cc(C(=O)Nc2ccc3c(c2)C(=O)OC3)c1)OCc1ccccc1	> 99.5 µM	> 100 µM
N#Cc1cc(NC(=O)OCc2ccccc2)cc(C(=O)Nc2cccc(CN)c2)c1	> 99.5 µM	> 100 µM
Cc1[nH]c2ccc(Br)cc2c1CC(=O)Nc1cccc(CN)c1	> 99.5 µM	> 100 µM
O=C(O)Cc1cccc(NC(=O)c2cc(Cl)cc(NC(=O)OCc3ccccc3)c2)c1	74.6 µM	40 µM
NCc1cccc(NC(=O)c2cc(C(F)(F)F)cnc2N2CCOCC2)c1	> 99.5 µM	> 100 µM
C[C@H]1C[C@@H](C(=O)Nc2cccc(CN)c2)CCO1	> 99.5 µM	> 100 µM
